Source: US6613317B1, “Volatile attractants for diabrotica species” (priority 1988, dated 2003)
Marks after values point to notes of the source that are not given here.

How the values were obtained:
[1] = test system: southern corn rootworm (SCR) adults; test: Sticky trap attraction in sweet corn plots (Example 1); type: in vivo, Diabrotica undecimpunctata howardi; conditions: August first year, single compounds 100 mg per trap
Outline: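 Field trapping in sweet-corn plots beside a Blue Hubbard squash trap crop; lures on mineral-oil-impregnated cotton wicks atop sticky paper-carton traps on 1-m posts, 4 replicates in randomized complete blocks. Beetles counted after 24 h; VIPAE/VIP/TIC mixtures and single components at 1–300 mg per trap, ANOVA/Duncan at P=0.05.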

D. barberi = test: Sticky trap attraction in prairie habitat, Trelease Woods (Example 2); type: in vivo, Diabrotica barberi; conditions: for Mean number of D. barberi per day (±standard deviation) / Mean number of D. barberi per sticky trap per day (±standard deviation): 100 mg per trap, n = 4
Outline: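 Lure-dosed cotton wicks (solids in acetone; untreated controls) on TangleTrap-coated cartons atop 1 m posts, four replicates 10 m apart in relict prairie, mid-August over two years. Read-out: mean beetles caught after 24-h; log-transformed ANOVA with Duncan's multiple range test.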

NCR [2] = conditions: in vivo; cited from earlier work
WCR = test: Limit of response rating of squash blossom volatiles on sticky traps (Example 5); type: in vivo, Diabrotica virgifera virgifera; conditions: 24 hour; four replicate traps; 0.01 mg to 200 mg
Outline: (§1)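 Adult Diabrotica beetles were tested against cylindrical sticky traps baited with cotton wicks holding 0.01 mg to 200 mg of individual Cucurbita maxima blossom volatiles. Response limit rated by trap catch.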

NCR [3] = test: as above; type: in vivo, Diabrotica barberi; conditions: 24 hour; four replicate traps; 0.01 mg to 200 mg
Outline: as §1

SCR = test: as above; type: in vivo, Diabrotica undecimpunctata howardi; conditions: 24 hour; four replicate traps; 0.01 mg to 200 mg
Outline: as §1

Row | Structure (SMILES) | Mean number of SCR per trap (±standard deviation) ([1]; South Farms, 24 h, mixture 20 mg of each component, n = 4) [per trap] | relative percent activity of the mean SCR trap catch as compared with the highest mean value in the column ([1]; mixture 20 mg each component) [%] | Mean number of D. barberi per day (±standard deviation) (D. barberi; August 11, 1987) | Mean number of D. barberi per day (±standard deviation) (D. barberi; August 14, 1987) | Mean number of D. barberi per sticky trap per day (±standard deviation) (D. barberi; August 18, first year) | Mean number of D. barberi per sticky trap per day (±standard deviation) (D. barberi; August 20, first year) | Mean number of D. barberi per sticky trap per day (±standard deviation) (D. barberi; August 27, first year) | activity for D. barberi relative to estragole (D. barberi; prairie, Table 5) [times] | LR for NCR, most effective volatile attractant yet identified (NCR [2]) [mg] | Attractant Rating WCR (by limit of response) (WCR) | Attractant Rating NCR (by limit of response) (NCR [3]) | activity for D. barberi relative to the TIC mixture (D. barberi; prairie, Table 5) | Attractant Rating SCR (by limit of response) (SCR)
1 | C=CCc1ccc(O)c(OC)c1 [XXIV, eugenol] | 2.8 ± 2.8 | 13 | 9.5 ± 8.3^bc per day | 8.3 ± 3.3^c per day | 21.8 ± 7.3^b per sticky trap per day | 22.5 ± 13.2^c per sticky trap per day | 10.5 ± 4.8^b per sticky trap per day | 2 | 10 | – | – | – | –
2 | OCC=Cc1ccccc1 [XVIII, cinnamyl alcohol] | – | – | 16.5 ± 5.1^c per day | 13.0 ± 12.8^bc per day | – | – | – | 5 | – | +1 (30-100) | +3 (3-10) | ca. 3.5 times | +2 (10-30)
